{"source": "paper PMC4206749", "about": "(Toxicological Research, 2014)", "key": {"[1]": {"tested_on": "L5178Y Tk^+/− mouse lymphoma cells", "experiment": "In vitro comet assay", "format": "cell-based", "conditions": "for % DNA in tail / Olive moment / Tail length / Tail moment: 4 hr; for Comet parameters compared to vehicle: p < 0.05"}, "[2]": {"tested_on": "CHL cells (Chinese hamster lung fibroblast cell line)", "experiment": "In vitro chromosomal aberration assay", "format": "cell-based"}, "[3]": {"tested_on": "Escherichia coli strain (WP2 uvrA)", "experiment": "Bacterial reverse mutation assay", "format": "cell-based", "conditions": "E. coli"}, "[4]": {"tested_on": "Salmonella typhimurium strain TA98", "experiment": "Bacterial reverse mutation assay", "format": "cell-based"}, "[5]": {"tested_on": "Salmonella typhimurium strain TA1537", "experiment": "Bacterial reverse mutation assay", "format": "cell-based"}, "[6]": {"tested_on": "Salmonella typhimurium strain TA100", "experiment": "Bacterial reverse mutation assay", "format": "cell-based"}, "[7]": {"tested_on": "Salmonella typhimurium strain TA1535", "experiment": "Bacterial reverse mutation assay", "format": "cell-based"}, "[8]": {"tested_on": "S. typhimurium strain TA100 and TA98, E. coli strain WP2uvrA", "conditions": "presence and absence of the S9 mix, 0.02~5000 μg per plate; cited from earlier work"}, "[9]": {"conditions": "positive control 35 μg/ml with S9 mix"}, "[10]": {"conditions": "positive control 10 μg/ml, with metabolic activation, short term treatment"}, "[11]": {"conditions": "positive control 15 μg/ml without S9 mix"}}, "note": "Marks after values point to notes of the source that are not given here.", "data": [{"smiles": "c1ccc2c(c1)cc1ccc3cccc4ccc2c1c34", "note": "[BaP, benzo(A)pryene, reference compound]", "values": [{"measurement": "% DNA in tail", "setting": "[1]; [9]", "value": "49.14 ± 3.29", "unit": "%"}, {"measurement": "Olive moment", "setting": "[1]; [9]", "value": "13.74 ± 1.97", "unit": "μm"}, {"measurement": "Tail length", "setting": "[1]; [9]", "value": "80.29 ± 6.24", "unit": "μm"}, {"measurement": "Tail moment", "setting": "[1]; [9]", "value": "42.15 ± 3.98", "unit": "μm"}, {"measurement": "Comet parameters compared to vehicle", "setting": "[1]; positive control with S9 mix", "value": "increased significantly"}]}, {"smiles": "O=P1(N(CCCl)CCCl)NCCCO1", "note": "(stereo not shown) [CPA, cyclophosphamide, reference compound]", "values": [{"measurement": "Total frequency (+) Gap", "setting": "[2]; [10]", "value": "132** %"}, {"measurement": "Total frequency (−) Gap", "setting": "[2]; [10]", "value": "116** %"}, {"measurement": "Frequency of cells with chromosomal aberration", "setting": "[2]; positive control, treatment with metabolic activation", "value": "> 10", "unit": "%"}]}, {"smiles": "Nc1ccc2cc3ccccc3cc2c1", "note": "[2-AA, 2-aminoanthracene, reference compound]", "values": [{"measurement": "Number of reverse mutants/plate (Mean ± SD)", "setting": "[3]; with S9 activation, positive control 10 μg/plate", "value": "428 ± 21", "unit": "reverse mutants/plate"}, {"measurement": "Number of reverse mutants/plate (Mean ± SD)", "setting": "[4]; TA98, with S9 activation, positive control 0.5 μg/plate", "value": "232 ± 9", "unit": "reverse mutants/plate"}, {"measurement": "Number of reverse mutants/plate (Mean ± SD)", "setting": "[5]; TA1537, with S9 activation, positive control 2.0 μg/plate", "value": "118 ± 16", "unit": "reverse mutants/plate"}, {"measurement": "Number of reverse mutants/plate (Mean ± SD)", "setting": "[6]; TA100, with S9 activation, positive control 1.0 μg/plate", "value": "598 ± 20", "unit": "reverse mutants/plate"}, {"measurement": "Number of reverse mutants/plate (Mean ± SD)", "setting": "[7]; TA1535, with S9 activation, positive control 2.0 μg/plate", "value": "156 ± 6", "unit": "reverse mutants/plate"}]}, {"smiles": "CO[C@@]12[C@H](COC(N)=O)C3=C(C(=O)C(C)=C(N)C3=O)N1C[C@@H]1N[C@@H]12", "note": "[MMC, mitomycin C, reference compound]", "values": [{"measurement": "Gap", "setting": "[2]; positive control 0.5 μg/ml, continuous treatment, 200 cells", "value": 8}]}, {"smiles": "NC(=O)C(=Cc1ccc([N+](=O)[O-])o1)c1ccco1", "note": "[AF-2, 2-(2-furyl)-3-(5-nitro-2-furyl) acrylamide, reference compound]", "values": [{"measurement": "Number of reverse mutants/plate (Mean ± SD)", "setting": "[3]; without S9 activation, positive control 0.01 μg/plate", "value": "334 ± 23", "unit": "reverse mutants/plate"}, {"measurement": "Number of reverse mutants/plate (Mean ± SD)", "setting": "[4]; TA98, without S9 activation, positive control 0.1 μg/plate", "value": "278 ± 20", "unit": "reverse mutants/plate"}, {"measurement": "Number of reverse mutants/plate (Mean ± SD)", "setting": "[6]; TA100, without S9 activation, positive control 0.01 μg/plate", "value": "425 ± 23", "unit": "reverse mutants/plate"}]}, {"smiles": "Oc1ccc(/C=C/c2cc(O)cc(O)c2)cc1", "note": "[Resveratrol]", "values": [{"measurement": "Bacterial reverse mutation assay result", "setting": "[8]", "value": "negative"}]}, {"smiles": "[N-]=[N+]=[N-].[Na+]", "note": "[NaN3, sodium azide, reference compound]", "values": [{"measurement": "Number of reverse mutants/plate (Mean ± SD)", "setting": "[7]; TA1535, without S9 activation, positive control 0.5 μg/plate", "value": "151 ± 17", "unit": "reverse mutants/plate"}]}, {"smiles": "COS(C)(=O)=O", "note": "[MMS, methyl methansulfonate, reference compound]", "values": [{"measurement": "% DNA in tail", "setting": "[1]; [11]", "value": "51.29 ± 4.26", "unit": "%"}, {"measurement": "Olive moment", "setting": "[1]; [11]", "value": "14.68 ± 1.01", "unit": "μm"}, {"measurement": "Tail length", "setting": "[1]; [11]", "value": "97.21 ± 6.75", "unit": "μm"}, {"measurement": "Tail moment", "setting": "[1]; [11]", "value": "58.13 ± 6.12", "unit": "μm"}, {"measurement": "Comet parameters compared to vehicle", "setting": "[1]; positive control without S9 mix", "value": "increased significantly"}]}, {"smiles": "Nc1c2ccccc2nc2ccccc12", "note": "[9-AA, 9-aminoacridine, reference compound]", "values": [{"measurement": "Number of reverse mutants/plate (Mean ± SD)", "setting": "[5]; TA1537, without S9 activation, positive control 80 μg/plate", "value": "151 ± 11", "unit": "reverse mutants/plate"}]}]}
